Test results taken from the CheMixHub viscosity set.
Several values for one entry are separate records, joined by “and”; a condition that tells them apart may be missing. Equal entries are not always repeated. ± gives the uncertainty stated by the source.

Columns and labels:
[1] = xn = mol fraction of the nth substance listed
[2] = 101 kPa

## CCCCCCCCCCCCCCC + CCCCCCCCCCO
[1]; 298.2 K, 100 kPa, x1 = 0.2565
  viscosity: 6.68 ± 0.41 mPa·s
[1]; 308.2 K, 100 kPa, x1 = 0.2565
  viscosity: 4.73 ± 0.29 mPa·s
[1]; 318.2 K, 100 kPa, x1 = 0.2565
  viscosity: 3.47 ± 0.21 mPa·s

## CC[n+]1ccccc1.O=S(=O)([O-])C(F)(F)F
[2]; 293.15 K
  viscosity: 75.2 ± 4.6 mPa·s
[2]; 298.15 K
  viscosity: 60.58 ± 3.7 mPa·s
[2]; 303.15 K
  viscosity: 48.77 ± 3 mPa·s
[2]; 313.15 K
  viscosity: 33.78 ± 2.1 mPa·s
[2]; 323.15 K
  viscosity: 24.47 ± 1.5 mPa·s

## [Cl-].[Cl-].[Cl-].[Cl-].[Sn+4] + c1ccccc1
[1]; 293.15 K, 101 kPa, x2 = 0.7
  viscosity: 0.6136 ± 0.009 mPa·s
[1]; 313.15 K, 101 kPa, x2 = 0.5
  viscosity: 0.5435 ± 0.008 mPa·s
[1]; 313.15 K, 101 kPa, x2 = 0.7
  viscosity: 0.485 ± 0.007 mPa·s and 0.4846 ± 0.0072 mPa·s

## O=C1CCCN1 + CCCCO
[1]; 293.15 K, 101 kPa, x1 = 0.8554
  viscosity: 10.75 ± 0.79 mPa·s

## Cc1cc(C)cc(C)c1 + O=C1CCCCC1
[1]; 298.15 K, 101.33 kPa, x2 = 0.0996
  viscosity: 0.702 ± 0.005 mPa·s
[1]; 298.15 K, 101.33 kPa, x2 = 0.1988
  viscosity: 0.75 ± 0.006 mPa·s
[1]; 298.15 K, 101.33 kPa, x2 = 0.3039
  viscosity: 0.81 ± 0.006 mPa·s
[1]; 298.15 K, 101.33 kPa, x2 = 0.4042
  viscosity: 0.882 ± 0.006 mPa·s
[1]; 298.15 K, 101.33 kPa, x2 = 0.5038
  viscosity: 0.965 ± 0.007 mPa·s
[1]; 298.15 K, 101.33 kPa, x2 = 0.602
  viscosity: 1.067 ± 0.007 mPa·s
[1]; 298.15 K, 101.33 kPa, x2 = 0.7001
  viscosity: 1.193 ± 0.008 mPa·s
[1]; 298.15 K, 101.33 kPa, x2 = 0.8014
  viscosity: 1.375 ± 0.009 mPa·s
[1]; 298.15 K, 101.33 kPa, x2 = 0.8988
  viscosity: 1.607 ± 0.01 mPa·s
[1]; 303.15 K, 101.33 kPa, x2 = 0.0996
  viscosity: 0.657 ± 0.005 mPa·s
[1]; 303.15 K, 101.33 kPa, x2 = 0.1988
  viscosity: 0.702 ± 0.005 mPa·s
[1]; 303.15 K, 101.33 kPa, x2 = 0.3039
  viscosity: 0.755 ± 0.005 mPa·s
[1]; 303.15 K, 101.33 kPa, x2 = 0.4042
  viscosity: 0.819 ± 0.006 mPa·s
[1]; 303.15 K, 101.33 kPa, x2 = 0.5038
  viscosity: 0.896 ± 0.006 mPa·s
[1]; 303.15 K, 101.33 kPa, x2 = 0.602
  viscosity: 0.987 ± 0.007 mPa·s
[1]; 303.15 K, 101.33 kPa, x2 = 0.7001
  viscosity: 1.115 ± 0.007 mPa·s
[1]; 303.15 K, 101.33 kPa, x2 = 0.8014
  viscosity: 1.258 ± 0.008 mPa·s
[1]; 303.15 K, 101.33 kPa, x2 = 0.8988
  viscosity: 1.484 ± 0.009 mPa·s
[1]; 308.15 K, 101.33 kPa, x2 = 0.0996
  viscosity: 0.619 ± 0.005 mPa·s
[1]; 308.15 K, 101.33 kPa, x2 = 0.1988
  viscosity: 0.659 ± 0.005 mPa·s
[1]; 308.15 K, 101.33 kPa, x2 = 0.3039
  viscosity: 0.706 ± 0.005 mPa·s
[1]; 308.15 K, 101.33 kPa, x2 = 0.4042
  viscosity: 0.765 ± 0.005 mPa·s
[1]; 308.15 K, 101.33 kPa, x2 = 0.5038
  viscosity: 0.835 ± 0.006 mPa·s
[1]; 308.15 K, 101.33 kPa, x2 = 0.602
  viscosity: 0.915 ± 0.006 mPa·s
[1]; 308.15 K, 101.33 kPa, x2 = 0.7001
  viscosity: 1.027 ± 0.007 mPa·s
[1]; 308.15 K, 101.33 kPa, x2 = 0.8014
  viscosity: 1.168 ± 0.008 mPa·s
[1]; 308.15 K, 101.33 kPa, x2 = 0.8988
  viscosity: 1.373 ± 0.009 mPa·s

## CCC[NH3+].O=[N+]([O-])[O-]
[2]; 298 K
  viscosity: 72.61 ± 2.6 mPa·s
